Structures are written as SMILES. Read-outs that look alike come from different tables or passages of the source.

Common to all, as to assay type: biochemical
The target of one assay is T1, human Yes1 enzyme (Homo sapiens, UniProt P07947).
T1 construct: made in house
Kind of assay: Yes1 enzyme inhibitory activity (time-resolved fluorometry, biotinylated peptide phosphorylation). Particulars: read-out: YES_IC50. An outline of the steps: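 Inhibition was expressed against a compound-free control to give IC50, using TR-FRET read-out (Eu-cryptate anti-pTyr antibody, streptavidin-XL665).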

A further assay addresses T2, human Src enzyme (Homo sapiens, UniProt P12931).
T2 construct: purchased Carna Biosciences, Inc. 08-173
Kind of assay: Src enzyme inhibitory activity (time-resolved fluorometry, biotinylated peptide phosphorylation). The note with it: read-out: SRC_IC50. An outline of the steps: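 Compounds were tested for blocking tyrosine phosphorylation of a biotinylated peptide substrate by recombinant human Src. Phosphorylated product was quantified by time-resolved fluorometry using europium cryptate and XL665 conjugates, and IC50 was calculated against the compound-free control.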

The target of a further assay is T3, human Lck enzyme (Homo sapiens, UniProt P06239).
T3 construct: purchased Carna Biosciences, Inc. 08-170
T3 sequence (P06239 whole entry): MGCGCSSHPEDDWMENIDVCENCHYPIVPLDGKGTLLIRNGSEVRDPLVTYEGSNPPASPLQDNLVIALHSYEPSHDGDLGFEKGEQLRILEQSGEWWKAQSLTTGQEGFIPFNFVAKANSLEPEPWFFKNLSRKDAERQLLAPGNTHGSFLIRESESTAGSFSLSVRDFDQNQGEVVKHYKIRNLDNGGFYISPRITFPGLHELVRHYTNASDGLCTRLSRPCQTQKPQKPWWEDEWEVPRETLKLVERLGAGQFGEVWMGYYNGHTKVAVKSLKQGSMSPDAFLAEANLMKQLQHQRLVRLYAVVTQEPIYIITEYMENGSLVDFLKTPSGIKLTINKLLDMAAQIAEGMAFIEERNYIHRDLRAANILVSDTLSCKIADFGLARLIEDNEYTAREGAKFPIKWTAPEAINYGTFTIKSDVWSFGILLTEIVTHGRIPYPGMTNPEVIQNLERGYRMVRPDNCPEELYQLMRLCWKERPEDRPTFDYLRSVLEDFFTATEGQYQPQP
Kind of assay: Lck enzyme inhibitory activity (time-resolved fluorometry, biotinylated peptide phosphorylation). Particulars: read-out: LCK_IC50. The method in brief:
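Readout pairs a europium cryptate-labelled anti-phosphotyrosine antibody with XL665-streptavidin, measured by time-resolved fluorescence. IC50 derived from percent inhibition against untreated controls.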

Where [1] appears, read: biotinylated peptide phosphorylation.

T1 sequence (P07947 whole entry): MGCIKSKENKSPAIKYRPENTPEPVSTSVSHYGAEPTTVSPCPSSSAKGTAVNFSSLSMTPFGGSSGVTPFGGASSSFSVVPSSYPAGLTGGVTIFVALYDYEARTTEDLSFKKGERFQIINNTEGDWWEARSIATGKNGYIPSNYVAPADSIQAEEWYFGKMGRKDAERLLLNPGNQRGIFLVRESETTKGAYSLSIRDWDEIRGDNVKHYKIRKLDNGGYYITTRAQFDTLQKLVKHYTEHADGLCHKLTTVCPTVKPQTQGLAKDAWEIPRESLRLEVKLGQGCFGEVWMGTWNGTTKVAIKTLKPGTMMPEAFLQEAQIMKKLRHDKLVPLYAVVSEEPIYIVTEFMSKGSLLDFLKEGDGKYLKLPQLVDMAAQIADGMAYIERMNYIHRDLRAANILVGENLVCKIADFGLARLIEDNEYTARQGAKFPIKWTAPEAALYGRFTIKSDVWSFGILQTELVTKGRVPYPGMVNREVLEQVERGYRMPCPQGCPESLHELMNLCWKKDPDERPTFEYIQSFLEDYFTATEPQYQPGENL
T2 sequence (P12931 whole entry): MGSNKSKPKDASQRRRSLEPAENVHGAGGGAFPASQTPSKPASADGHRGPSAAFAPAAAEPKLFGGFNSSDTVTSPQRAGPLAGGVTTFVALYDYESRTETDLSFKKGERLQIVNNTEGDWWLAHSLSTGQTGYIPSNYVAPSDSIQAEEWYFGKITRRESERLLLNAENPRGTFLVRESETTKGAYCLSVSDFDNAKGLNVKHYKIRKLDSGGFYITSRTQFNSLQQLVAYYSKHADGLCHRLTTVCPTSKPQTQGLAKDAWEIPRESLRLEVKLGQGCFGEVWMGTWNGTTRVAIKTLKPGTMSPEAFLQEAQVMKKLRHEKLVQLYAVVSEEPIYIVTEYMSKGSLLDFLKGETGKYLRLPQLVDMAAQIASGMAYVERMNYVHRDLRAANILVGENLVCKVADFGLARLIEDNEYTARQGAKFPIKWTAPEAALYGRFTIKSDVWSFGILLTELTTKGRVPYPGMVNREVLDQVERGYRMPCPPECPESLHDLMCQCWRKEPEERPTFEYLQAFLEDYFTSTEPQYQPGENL

On to `Cc1cc(Oc2c(F)cccc2F)ncc1-n1ncc(C(=O)c2cc3cc(F)c(N4CC(C)(C)NS4(=O)=O)cc3[nH]2)c1N` [Example 5-1-398, [5-amino-1-[6-(2,6-difluorophenoxy)-4-methylpyridin-3-yl]pyrazol-4-yl]-[6-(4,4-dimethyl-1,1-dioxo-1,2,5-thiadiazolidin-2-yl)-5-fluoro-1H-indol-2-yl]methanone], for which the IC50 on human Yes1 enzyme was 2.4 nM; at human Src enzyme, 95 nM; on human Lck enzyme, 20 nM.

As for `Cc1cc(Oc2ccccc2F)ccc1-n1ncc(C(=O)c2cc3cc(OC(F)F)c(NS(=O)(=O)C4CCOCC4)cc3[nH]2)c1N` [Example 5-1-390, N-[2-[5-amino-1-[4-(2-fluorophenoxy)-2-methylphenyl]pyrazole-4-carbonyl]-5-(difluoromethoxy)-1H-indol-6-yl]oxane-4-sulfonamie], the IC50 on human Yes1 enzyme was determined as 1.9 nM; at human Src enzyme it was 44 nM; at human Lck enzyme, 25 nM.

Take `COc1ccc(S(=O)(=O)Nc2cc3[nH]c(C(=O)c4cnn(-c5cnc(Oc6c(F)cccc6F)cc5C)c4N)cc3cc2OCC(F)F)cc1` [Example 5-1-299, N-[2-[5-amino-1-[6-(2,6-difluorophenoxy)-4-methylpyridin-3-yl]pyrazole-4-carbonyl]-5-(2,2-difluoroethoxy)-1H-indol-6-yl]-4-methoxybenzenesulfonamide]: the IC50 was determined as 9.7 nM on human Yes1 enzyme, 610 nM at human Src enzyme and 120 nM on human Lck enzyme.

`Cc1cc(Oc2ccccc2F)ncc1-n1ncc(C(=O)c2cc3cc(OC(F)F)c(NS(=O)(=O)N4CCOCC4)cc3[nH]2)c1N` [Example 4-22-002, N-[2-[5-amino-1-[6-(2-fluorophenoxy)-4-methylpyridin-3-yl]pyrazole-4-carbonyl]-5-(difluoromethoxy)-1H-indol-6-yl]morpholine-4-sulfonamide]: the IC50 was determined as 3 nM on human Yes1 enzyme (setting [1]), 240 nM on human Src enzyme (setting [1]) and 68 nM at human Lck enzyme (setting [1]).

Regarding `Cc1cc(-n2ncc(C(=O)c3cc4cc(F)c(NS(C)(=O)=O)cc4[nH]3)c2N)cnc1Oc1ccccc1F` [Example 5-1-039, N-[2-[5-amino-1-[6-(2-fluorophenoxy)-5-methylpyridin-3-yl]pyrazole-4-carbonyl]-5-fluoro-1H-indol-6-yl]methanesulfonamide], the IC50 was determined as 120 nM at human Yes1 enzyme, 6100 nM at human Src enzyme and 2000 nM at human Lck enzyme.

On to `Cc1cc(Oc2ccccc2F)cc(F)c1-n1ncc(C(=O)c2cc3cc(OC(F)F)c(NC4COC4)cc3[nH]2)c1N` [Example 4-23-011, [5-amino-1-[2-fluoro-4-(2-fluorophenoxy)-6-methylphenyl]pyrazol-4-yl]-[5-(difluoromethoxy)-6-(oxetan-3-ylamino)-1H-indol-2-yl]methanone], for which the values for the IC50 on human Yes1 enzyme (setting [1]), at human Src enzyme (setting [1]) and on human Lck enzyme (setting [1]) were 7.6 nM, 63 nM and 19 nM, respectively.

For `Cc1cc(Oc2cccc(F)c2F)ccc1-n1ncc(C(=O)c2cc3cc(F)c(NS(=O)(=O)CCCF)cc3[nH]2)c1N` [Example 4-2-016, N-[2-[5-amino-1-[4-(2,3-difluorophenoxy)-2-methylphenyl]pyrazole-4-carbonyl]-5-fluoro-1H-indol-6-yl]-3-fluoropropane-1-sulfonamide], the IC50 on human Yes1 enzyme (setting [1]) was 2.1 nM; on human Src enzyme (setting [1]), 70 nM; at human Lck enzyme (setting [1]), 19 nM.

Regarding `Cc1cc(Oc2ccccc2F)ccc1-n1ncc(C(=O)c2cc3cc(C4CC4)c(NS(=O)(=O)CCCF)cc3[nH]2)c1N` [Example 5-1-426, N-[2-[5-amino-1-[4-(2-fluorophenoxy)-2-methylphenyl]pyrazole-4-carbonyl]-5-cyclopropyl-1H-indol-6-yl]-3-fluoropropane-1-sulfonamide], the results for the IC50 on human Yes1 enzyme (setting [1]), on human Src enzyme (setting [1]) and on human Lck enzyme (setting [1]) were 2 nM, 95 nM and 36 nM, respectively.

As for `CC(=O)N1CCC(c2cc3[nH]c(C(=O)c4cnn(-c5ccc(Oc6ccccc6F)cc5C)c4N)cc3cc2OCC(F)F)CC1` [Example 4-17-014, 1-[4-[2-[5-amino-1-[4-(2-fluorophenoxy)-2-methylphenyl]pyrazole-4-carbonyl]-5-(2,2-difluoroethoxy)-1H-indol-6-yl]piperidin-1-yl]ethanone], the IC50 at human Yes1 enzyme (setting [1]) was 4.5 nM; at human Src enzyme (setting [1]), 27 nM; on human Lck enzyme (setting [1]), 13 nM.

In the case of `Cc1cc2cc(C(=O)c3cnn(-c4cnc(Oc5c(F)cccc5F)cc4C)c3N)[nH]c2cc1NS(=O)(=O)C1CC1` [Example 4-1-017, N-[2-[5-amino-1-[6-(2,6-difluorophenoxy)-4-methylpyridin-3-yl]pyrazole-4-carbonyl]-5-methyl-1H-indol-6-yl]cyclopropanesulfonamide], the IC50 at human Yes1 enzyme (setting [1]) was 3.1 nM; on human Src enzyme (setting [1]) it was 100 nM; at human Lck enzyme (setting [1]), 4.9 nM.

Consider `Cc1cc(Oc2c(F)cccc2F)ncc1-n1ncc(C(=O)c2cc3cc(F)c(N4CCCS4(=O)=O)cc3[nH]2)c1N` [Example 4-9-002, [5-amino-1-[6-(2,6-difluorophenoxy)-4-methylpyridin-3-yl]pyrazol-4-yl]-[6-(1,1-dioxo-1,2-thiazolidin-2-yl)-5-fluoro-1H-indol-2-yl]methanone], for which the IC50 on human Yes1 enzyme (setting [1]) was 0.72 nM; at human Src enzyme (setting [1]), 9.8 nM; at human Lck enzyme (setting [1]), 0.96 nM.

Turning to `Cc1cc(Oc2c(F)cccc2F)ncc1-n1ncc(C(=O)c2cc3cc(C4CC4)c(NS(=O)(=O)C4CCOCC4)cc3[nH]2)c1N` [Example 5-1-395, N-[2-[5-amino-1-[6-(2,6-difluorophenoxy)-4-methylpyridin-3-yl]pyrazole-4-carbonyl]-5-cyclopropyl-1H-indol-6-yl]oxane-4-sulfonamide], the IC50 at human Yes1 enzyme amounted to 4.8 nM; at human Src enzyme, 210 nM; at human Lck enzyme, 66 nM.

Turning to `Cc1cc(Oc2cc(F)cc(F)c2)ncc1-n1ncc(C(=O)c2cc3cc(F)c(NS(C)(=O)=O)cc3[nH]2)c1N` [Example 5-1-038, N-[2-[5-amino-1-[6-(3,5-difluorophenoxy)-4-methylpyridin-3-yl]pyrazole-4-carbonyl]-5-fluoro-1H-indol-6-yl]methanesulfonamide], the IC50 on human Yes1 enzyme is 16 nM; on human Src enzyme, 270 nM; at human Lck enzyme, 66 nM.

Regarding `Cc1cc2[nH]c(C(=O)c3cnn(-c4c(C)cc(Oc5ccccc5F)cc4F)c3N)cc2cc1NS(C)(=O)=O` [Example 4-2-051, N-[2-[5-amino-1-[2-fluoro-4-(2-fluorophenoxy)-6-methylphenyl]pyrazole-4-carbonyl]-6-methyl-1H-indol-5-yl]methanesulfonamide], the IC50 came out at 0.59 nM at human Yes1 enzyme (setting [1]), 3.8 nM on human Src enzyme (setting [1]) and 1.2 nM at human Lck enzyme (setting [1]).

Turning to `Cc1cc(Oc2ccccc2F)ccc1-n1ncc(C(=O)c2cc3cc(F)c(N4CCN(S(C)(=O)=O)CC4)cc3[nH]2)c1N` [Example 5-1-125, [5-amino-1-[4-(2-fluorophenoxy)-2-methylphenyl]pyrazol-4-yl]-[5-fluoro-6-(4-methylsulfonylpiperazin-1-yl)-1H-indol-2-yl] methanone], the IC50 is 0.71 nM at human Yes1 enzyme, 33 nM at human Src enzyme and 9.2 nM on human Lck enzyme.

With `CS(=O)(=O)Nc1cc2[nH]c(C(=O)c3cnn(-c4ccc(Oc5ccccn5)cc4Cl)c3N)cc2cc1F` [Example 4-1-003, N-[2-[5-amino-1-(2-chloro-4-pyridin-2-yloxyphenyl)pyrazole-4-carbonyl]-5-fluoro-1H-indol-6-yl]methanesulfonamide], the IC50 on human Yes1 enzyme (setting [1]) came to 1.2 nM; on human Src enzyme (setting [1]), 55 nM; at human Lck enzyme (setting [1]), 14 nM.

For the molecule `Cc1cc2cc(C(=O)c3cnn(-c4ccc(Oc5ccccc5F)cc4C)c3N)[nH]c2cc1N1C(=O)NC2(CCCC2)C1=O` [Example 5-1-373, 3-[2-[5-amino-1-[4-(2-fluorophenoxy)-2-methylphenyl]pyrazole-4-carbonyl]-5-methyl-1H-indol-6-yl]-1,3-diazaspiro[4.4]nonane-2,4-dione], the IC50 at human Yes1 enzyme is 3.1 nM; on human Src enzyme, 48 nM; on human Lck enzyme, 14 nM.

For the molecule `Cc1cc(Oc2ccccc2Cl)ncc1-n1ncc(C(=O)c2cc3cc(NS(C)(=O)=O)c(F)cc3[nH]2)c1N` [Example 5-1-050, N-[2-[5-amino-1-[6-(2-chlorophenoxy)-4-methylpyridin-3-yl]pyrazole-4-carbonyl]-6-fluoro-1H-indol-5-yl]methanesulfonamide], the IC50 at human Yes1 enzyme turned out to be 0.77 nM; on human Src enzyme, 23 nM; at human Lck enzyme it was 1.8 nM.

Regarding `Cc1cc(Oc2c(F)cccc2F)ncc1-n1ncc(C(=O)c2cc3cc(C(C)C)c(NS(=O)(=O)CCCF)cc3[nH]2)c1N` [Example 5-1-305, N-[2-[5-amino-1-[6-(2,6-difluorophenoxy)-4-methylpyridin-3-yl]pyrazole-4-carbonyl]-5-propan-2-yl-1H-indol-6-yl]-3-fluoropropane-1-sulfonamide], the IC50 on human Yes1 enzyme came out at 9.8 nM; at human Src enzyme it was 380 nM; on human Lck enzyme, 84 nM.

Take `Cc1cc(Oc2c(F)cccc2F)ncc1-n1ncc(C(=O)c2cc3cc(OCC(F)F)c(N4C(=O)NC(C)(C)C4=O)cc3[nH]2)c1N` [Example 4-23-032, 3-{2-{5-amino-1-[6-(2,6-difluorophenoxy)-4-methylpyridin-3-yl]pyrazole-4-carbonyl}-5-(2,2-difluoroethoxy)-1H-indol-6-yl}-5,5-dimethylimidazolidine-2,4-dione]: the results for the IC50 at human Yes1 enzyme (setting [1]), on human Src enzyme (setting [1]) and at human Lck enzyme (setting [1]) were 0.58 nM, 17 nM and 2.5 nM, respectively.

These data come from patent US10479780B2, “Aminopyrazole derivatives” (Chugai Seiyaku Kabushiki Kaisha, priority 2015, dated 2019).
